We go through 1 molecule from US9181116B2, “Organophosphorus derivatives and use thereof as uncoupling agents” (RHODIA OPERATIONS, priority 2009, dated 2015).

The test system of one experiment is strain Schinella granuli. The experiment can be described thus: Oxytop respirometry screening test (oxygen overconsumption = uncoupling). In kind it is cell-based. From the text:
In order to evaluate the reduction in sludge production by an uncoupling chemical agent in respirometry (in order to measure oxygen overconsumption, a characteristic signature of the effects of an uncoupling agent), the oxytop® test technique is used containing a synthetic medium and bacterial strains particularly sensitive to uncoupling agents.
The method and the apparatus used are those described in Example 3 of WO 2004/113236 cited as a reference. The strain Schinella granuli was used as an inoculum in this methodology (which differs from Example 3 of WO 2004/113236 which used activated sludge).
They are expressed as an uncoupling percentage relatively to the control (not comprising any uncoupling agent). This means that for Ex2 at 0.05 mg/l, we have an oxygen overconsumption of 18% relatively to the control not comprising any uncoupling agent. THPS (tetrakis(hydromethyl)phosphonium sulfate) produces uncoupling effects in the oxitop® respirometry tests of 16±8% for a rated concentration of 3 ppm, the 95% confidence interval of THPS in terms of uncoupling factor being, values computed from results obtained in 26 Oxitop® tests.

In experiment [1] the test system is activated sludge from the urban STEP of St-Fons. Kind of experiment: Chemostat biological pilot, reduction of activated sludge production (flash mixing). Conditions: 2.9 ppm, 3 months injection. The text has this:
Detection of the reduction of activated sludge by an organophosphonium derivative in a Chemostat® biological pilot.
Tests on biological pilots continuously fed with synthetic effluent dealt with the molecule of Ex2 (Example 2 above), show significant uncoupling effects on the reduction of sludge production. The biological pilots have a volume of 5 liters and are continuously aerated; a purge of the latter is made everyday (except on weekends) in order to obtain a sludge age of about 7 days. The biological pilots were seeded with activated sludge from the urban STEP of St-Fons (France). After a short acclimatization period of the sludge, the treatment with the molecule Ex2 was carried out according to the flash mixing method also described in Example 1 of WO 2004/113236 cited as a reference.
An experiment, for which the total period of injection of the uncoupling product according to the flash mixing method lasted for 3 months, gave the following results:
A complementary experiment, this time using two different grades of the compound Ex2 of Example 2 above, designated as EX21 and EX22a hereafter, gave the following results over a 1 month injection period: […]

In the case of `O=S(=O)([O-])[O-].OC[P+](CO)(CO)CO.OC[P+](CO)(CO)CO` [THPS, tetrakis(hydromethyl)phosphonium sulfate], in the experiment with strain Schinella granuli (3 ppm (rated concentration), THPS: average over 26 tests), the “uncoupling percentage relatively to the control (oxygen overconsumption)” value turned out to be 16±8%. Moreover, the “95% confidence interval in terms of uncoupling factor” value in the experiment on strain Schinella granuli (3 ppm, computed from 26 Oxitop tests) was 10-22. In experiment [1], the Growth rate was 0.171 g of MLSS/g of removed COD. Also, in experiment [1] (vs untreated control), the “Reduction in growth rate” value came out at 9.0% and the “Reduction in sludge production” value is listed as 13.6%.
